In patent US20240166652A1, “MODULATORS OF THE INTEGRATED STRESS PATHWAY” (Calico Life Sciences LLC, priority 2017, published 2024):

Test system: ATF4 luciferase reporter in HEK293T cells
Assay: ATF4-Luc assay (ATF4 luciferase reporter, tunicamycin-treated HEK293T cells)
Type: cell-based, human
Settings: HEK293T cells carrying the ATF4 luciferase reporter, 1 μg/mL tunicamycin, 7 hours

| Compound | EC50 [nM] |
| --- | --- |
| O=C(COc1ccc(Cl)cc1)NC12CCC(NC(=O)COc3ccc(F)cc3)(CC1)[C@@H](O)C2 [Compound 708, 2-(4-chlorophenoxy)-N-{(3S)-4-[2-(4-fluorophenoxy)acetamido]-3-hydroxybicyclo[2.2.2]octan-1-yl}acetamide] | < 10 |

Same assay, conditions: Homo sapiens, HEK-293T; HEK293T cells carrying the ATF4 luciferase reporter, 1 μg/mL tunicamycin, 7 hours

| Compound | EC50 [nM] |
| --- | --- |
| O=C(COc1ccc(Cl)cc1)NC12CC(NCCOc3ccc(Cl)cc3)(C1)C2 [Compound 113, 2-(4-chlorophenoxy)-N-(3-{[2-(4-chlorophenoxy)ethyl]amino}bicyclo-[1.1.1]pentan-1-yl)acetamide] | 50 to 250 |
| COc1ncc(OCC(=O)NC23CCC(NC(=O)COc4ccc(F)cc4)(CC2)[C@@H](O)C3)cn1 [Compound 631, 2-(4-fluorophenoxy)-N-[(2S)-2-hydroxy-4-{2-[(2-methoxypyrimidin-5-yl)oxy]acetamido}bicyclo[2.2.2]octan-1-yl]acetamide] | 50 to 250 |
| O=C(COc1ccc(Cl)c(F)c1)NC12CC(NC(=O)Cc3ccccn3)(C1)C2 [Compound 448, 2-(4-chloro-3-fluorophenoxy)-N-{3-[2-(pyridin-2-yl)acetamido]bicyclo[1.1.1]pentan-1-yl}acetamide] | > 2000 |
| Cc1ccc(OC(=O)NC23CCC(NC(=O)COc4ccc(Cl)c(F)c4)(CC2)CC3O)cc1 (stereo not drawn) [Compound 433, 4-methylphenyl {4-[2-(4-chloro-3-fluorophenoxy)acetamido]-2-hydroxybicyclo[2.2.2]octan-1-yl}carbamate] | 50 to 250 |
| CO[C@H]1C[C@]2(NC(=O)COc3ccc(Cl)c(F)c3)CC[C@@]1(NC(=O)COc1ccc(Cl)c(F)c1)CC2O (mixture of isomers) [Compound 553, rac-N,N′-[(1R,4R,5S)-2-hydroxy-5-methoxybicyclo[2.2.2]octane-1,4-diyl]bis[2-(4-chloro-3-fluorophenoxy)acetamide]] | < 10 |
| O=C(COc1ccc(Cl)c(F)c1)NC12CCC(NC(=O)COc3ccnn(CC(F)(F)F)c3=O)(CC1)C(=O)C2 [Compound 316, 2-(4-chloro-3-fluorophenoxy)-N-[3-oxo-4-(2-{[3-oxo-2-(2,2,2-trifluoroethyl)-2,3-dihydropyridazin-4-yl]oxy}acetamido)bicyclo[2.2.2]octan-1-yl]acetamide] | 500 to 2000 |
| Cc1ccnc(OCC(=O)NC23CCC(NC(=O)COc4ccc(Cl)c(F)c4)(CC2)C[C@@H]3O)n1 [Compound 753, 2-(4-chloro-3-fluorophenoxy)-N-[(3S)-3-hydroxy-4-{2-[(4-methylpyrimidin-2-yl)oxy]acetamido}bicyclo[2.2.2]octan-1-yl]acetamide] | 250 to 500 |
| O=C(COc1ccc(F)c(F)c1)NC12CCC(NC(=O)COc3ccc(F)cc3)(CC1)[C@@H](O)C2 [Compound 811, 2-(3,4-difluorophenoxy)-N-{(3S)-4-[2-(4-fluorophenoxy)acetamido]-3-hydroxybicyclo[2.2.2]octan-1-yl}acetamide] | < 10 |
| O=C(Cc1ccc(Cl)c(F)c1)NC12CCC(NC(=O)COc3ccc(Cl)c(F)c3)(CC1)[C@@H](O)C2 [Compound 608, 2-(4-chloro-3-fluorophenoxy)-N-{(2S)-4-[2-(4-chloro-3-fluorophenyl)acetamido]-2-hydroxybicyclo[2.2.2]octan-1-yl}acetamide] | 50 to 250 |
| Cc1cc(OCC(=O)NC23CCC(NC(=O)COc4ccc(Cl)c(F)c4)(CC2)[C@@H](O)C3)ccc1F [Compound 814, 2-(4-chloro-3-fluorophenoxy)-N-{(2S)-4-[2-(4-fluoro-3-methylphenoxy)acetamido]-2-hydroxybicyclo[2.2.2]octan-1-yl}acetamide] | < 10 |
| O=C(COc1ccc(Cl)c(F)c1)NC12CC(NC(=O)C(OCCO)c3ccc(F)cc3)(C1)C2 (stereo not drawn) [Compound 779, N-{3-[2-(4-chloro-3-fluorophenoxy)acetamido]bicyclo[1.1.1]pentan-1-yl}-2-(4-fluorophenyl)-2-(2-hydroxyethoxy)acetamide] | > 2000 |
